Experimental data taken from ChEMBL document CHEMBL4665808, “Krisynomycins, Imipenem Potentiators against Methicillin-Resistant Staphylococcus aureus, Produced by Streptomyces canus” (2020).
In brackets after ≈: the same amount, converted by molar mass.

Columns and labels:
Format in all cases: functional
Staphylococcus aureus [1] = test: Antibacterial against methicillin-resistance Staphylococcus aureus MB5393 by broth dilution method
Staphylococcus aureus [2] = test: Potentiation of imipenem-induced activity antibacterial against methicillin-resistance Staphylococcus aureus MB5393 in presence of 4 ug/ml imipenem by broth dilution method
Staphylococcus aureus [3] = test: Potentiation of imipenem-induced activity antibacterial against methicillin-resistance Staphylococcus aureus MB5393 in presence of 2 ug/ml imipenem by broth dilution method
Staphylococcus aureus [4] = test: Potentiation of imipenem-induced activity antibacterial against methicillin-resistance Staphylococcus aureus MB5393 in presence of 1 ug/ml imipenem by broth dilution method

## CC(C)=CCc1ccc(Cl)c2[nH]cc(C[C@@H]3NC(=O)[C@H](Cc4c[nH]c5c(Cl)cccc45)NC(=O)[C@@H]4CCCN4C(=O)[C@@H](CS(=O)(=O)O)NC(=O)[C@@H](NC(=O)[C@@H](NC(=O)[C@H](C)NC(=O)CC(=O)O)C(C)C)COC(=O)[C@H](CO)NC(=O)[C@@H](CC(C)C)NC(=O)[C@@H](C(C)C)NC3=O)c12
Staphylococcus aureus [1]
  MIC: 16 µg/mL (≈ 11.4 µM)
Staphylococcus aureus [2]
  MIC: 0.25 µg/mL
Staphylococcus aureus [3]
  MIC: 0.5 µg/mL
Staphylococcus aureus [4]
  MIC: 0.5 µg/mL

## CC(C)=CCc1cccc2[nH]cc(C[C@@H]3NC(=O)[C@H](Cc4c[nH]c5c(Cl)cccc45)NC(=O)[C@@H]4CCCN4C(=O)[C@@H](CS(=O)(=O)O)NC(=O)[C@@H](NC(=O)[C@@H](NC(=O)[C@H](C)NC(=O)CC(=O)O)C(C)C)COC(=O)[C@H](CO)NC(=O)[C@@H](CC(C)C)NC(=O)[C@@H](C(C)C)NC3=O)c12
Staphylococcus aureus [1]
  MIC: > 128 µg/mL
Staphylococcus aureus [2]
  MIC: 2 µg/mL
Staphylococcus aureus [3]
  MIC: 4 µg/mL
Staphylococcus aureus [4]
  MIC: 4 µg/mL

## CC(C)=CCc1cccc2[nH]cc(C[C@@H]3NC(=O)[C@H](Cc4c[nH]c5ccccc45)NC(=O)[C@@H]4CCCN4C(=O)[C@@H](CS(=O)(=O)O)NC(=O)[C@@H](NC(=O)[C@@H](NC(=O)[C@H](C)NC(=O)CC(=O)O)C(C)C)COC(=O)[C@H](CO)NC(=O)[C@@H](CC(C)C)NC(=O)[C@@H](C(C)C)NC3=O)c12
Staphylococcus aureus [1]
  MIC: > 128 µg/mL
Staphylococcus aureus [2]
  MIC: 8 µg/mL
Staphylococcus aureus [3]
  MIC: 16 µg/mL
Staphylococcus aureus [4]
  MIC: 16 µg/mL

## C[C@@H](O)[C@H]1C(=O)N2C(C(=O)O)=C(SCCNC=N)C[C@H]12 [IMIPENEM ANHYDROUS]
Staphylococcus aureus [1]
  MIC: 16 µg/mL (≈ 53.4 µM)
